# Literature values in patent publication US20030073826A1 (priority 2001, published 2003).
# System: bacteria
# Conditions: U.S. Pat. No. 3,496,163, Example 2
structure (smiles),measurement,value
CCC[C@@H]1C[C@@H](C(=O)NC(C(C)Cl)C2OC(SC)C(O)C(O)C2O)N(C)C1 (stereo partly shown) [clindamycin free base],antibacterial spectrum compared with the hydrochloride salt of clindamycin,same scope and magnitude
